Consider 21 compounds from paper PMC6010013, “Synthesis, physiochemical property and antimicrobial activity of novel quaternary ammonium salts” (Journal of Enzyme Inhibition and Medicinal Chemistry, 2017).

Where a name gives a salt, the structure may show the parent alone.

For one series, the system named is normal cell lines. On the set-up: method as in PMID 25215430. The following applies: cell line not given; cited from earlier work.

Compound `C[N+](CCO)(CCO)CCCCCCSc1nnc(-c2ccc(F)cc2)o1` (as salt: bromide) [Compound 5a] returned a melting point of 74 to 76 °C.
Still for that read-out and setting: the same measure for `C[N+](CCO)(CCO)CCCCCCCCSc1nnc(-c2ccc(F)cc2)o1` (as salt: bromide) [Compound 5b]: 81 to 82 °C; for `C[N+](CCO)(CCO)CCCCCCCCCCSc1nnc(-c2ccc(F)cc2)o1` (as salt: bromide) [Compound 5c]: 102 to 103 °C.
Still for that read-out and setting: for `C[N+](CCO)(CCO)CCCCCCCCCCCCSc1nnc(-c2ccc(F)cc2)o1` (as salt: bromide) [Compound 5d] the value was 98 to 100 °C; for `C[N+](CCO)(CCO)CCCCCCSc1nnc(-c2ccc(C(F)(F)F)cc2)o1` (as salt: bromide) [Compound 6a], 93 to 94 °C.
The same measure, in the same setting: the same measure for `C[N+](CCO)(CCO)CCCCCCCCSc1nnc(-c2ccc(C(F)(F)F)cc2)o1` (as salt: bromide) [Compound 6b]: 78 to 80 °C; for `CC(C)(C)c1ccc(-c2nnc(SCCCCCC[N+](C)(CCO)CCO)o2)cc1` (as salt: bromide) [Compound 7a]: 78 to 80 °C; for `CC(C)(C)c1ccc(-c2nnc(SCCCCCCCC[N+](C)(CCO)CCO)o2)cc1` (as salt: bromide) [Compound 7b]: 71 to 72 °C.
As to `CC(C)(C)c1ccc(-c2nnc(SCCCCCCCCCC[N+](C)(CCO)CCO)o2)cc1` (as salt: bromide) [Compound 7c], the melting point lay in the range of 78 to 80 °C.
As for `C[N+](CCO)(CCO)CCCCCCCCSc1nc2ccccc2o1` (as salt: bromide) [Compound 10b], the melting point was 125 to 127 °C.
The same measure, in the same setting: for `C[N+](CCO)(CCO)CCCCCCCCCCSc1nc2ccccc2o1` (as salt: bromide) [Compound 10c] the value was 128 to 129 °C; for `C[N+](CCO)(CCO)CCCCCCCCCCCCSc1nc2ccccc2o1` (as salt: bromide) [Compound 10d], 125 to 127 °C; for `C[N+](CCO)(CCO)CCCCCCSc1nc2ccccc2s1` (as salt: bromide) [Compound 13a], 142 to 143 °C.
The same measure, in the same setting: for `C[N+](CCO)(CCO)CCCCCCCCSc1nc2ccccc2s1` (as salt: bromide) [Compound 13b] the value was 87 to 89 °C.
On the same count and under the same terms, for `C[N+](CCO)(CCO)CCCCCCCCCCSc1nc2ccccc2s1` (as salt: bromide) [Compound 13c] the value was 111 to 112 °C; for `C[N+](CCO)(CCO)CCCCCCCCCCCCSc1nc2ccccc2s1` (as salt: bromide) [Compound 13d], 106 to 107 °C; for `Cc1nnc(SCCCCCC[N+](C)(CCO)CCO)s1` (as salt: bromide) [Compound 16a], 56 to 57 °C.
Compound `Cc1nnc(SCCCCCCCC[N+](C)(CCO)CCO)s1` (as salt: bromide) [Compound 16b] registered a melting point of 74 to 75 °C.
Same read-out and setting: the same measure for `Cc1nnc(SCCCCCCCCCC[N+](C)(CCO)CCO)s1` (as salt: bromide) [Compound 16c]: 77 to 78 °C; for `Cc1nnc(SCCCCCCCCCCCC[N+](C)(CCO)CCO)s1` (as salt: bromide) [Compound 16d]: 95 to 96 °C.
For the compound `CCCCCCCCCCCC[N+](C)(CCO)CCO` [Compound C12QAS, N-methyl-N-dodecyl-N,N-bis(2-hydroxyethyl) ammonium bromides], the “Cytotoxicity IC50” value in the series with normal cell lines is reported as “ca. 4.00 μg/mL”.
